Measured values as given in US20220267309A1, “DIMERIC OR POLYMERIC FORM OF MUTANT IDH INHIBITOR” (EPITAS BIOSCIENCES (SHANGHAI) CO., LTD., priority 2019, published 2022).
pIC50: −log10 of the molar value. Where two headings read alike, the source gives them in different places.

Assays:
Format in all cases: cell-based
IDH2/R140Q = target: T1, IDH2/R140Q (Homo sapiens, UniProt P48735, R140Q); experiment: Inhibitory activity against mutant IDH2/R140Q at the cellular level (extracellular 2-HG, U87MG cells); settings: glioma cell U87MG overexpressing IDH2/R140Q; for IC50: 2-HG in culture medium
T1 construct: expressed in transfected cells; host or cells: U87MG glioma cells
T1 sequence (P48735 40-452 R140Q): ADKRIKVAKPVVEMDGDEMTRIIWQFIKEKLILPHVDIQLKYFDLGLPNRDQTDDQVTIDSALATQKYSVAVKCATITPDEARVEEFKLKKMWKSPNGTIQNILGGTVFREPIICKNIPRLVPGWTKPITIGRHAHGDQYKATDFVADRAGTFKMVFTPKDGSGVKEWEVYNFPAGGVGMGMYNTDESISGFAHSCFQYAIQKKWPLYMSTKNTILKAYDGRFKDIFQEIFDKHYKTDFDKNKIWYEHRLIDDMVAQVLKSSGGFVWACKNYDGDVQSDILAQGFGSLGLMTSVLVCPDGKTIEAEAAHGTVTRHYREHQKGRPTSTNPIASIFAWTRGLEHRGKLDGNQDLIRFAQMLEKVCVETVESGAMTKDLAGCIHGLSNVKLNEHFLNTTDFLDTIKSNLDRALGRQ
Experimental: (§1) 2-Hydroxyglutarate dehydrogenase (2HGDH) can reduce NAD+ to NADH in the presence of 2-HG. The later can be quantitatively detected by diaphorase and its substrate Resazurin.
(§2) The cells were digested with trypsin and seeded in a 96-well plate at a density of 1×10^4 with a medium of 200 μL and cultured in a 37° C. incubator overnight. The next day, the test compound was added to a final concentration of 0.1% for DMSO. […] The protein and other components in the culture medium that may interfere with the results were filtered, and the follow-up method was used to detect the content of 2-HG.
(§3) Extracellular 2-HG Detecting System:
(§4) (1) 50 μL reaction system: reaction buffer (50 mM Tris pH7.5, 100 mM NaCl, 20 mM MgCl2, 0.05% BSA), in which the final concentration of NAD+ was 40 μM, the final concentration of 2HGDH was 20 nM, and the test sample was added to 5 μL of culture medium; the reaction solution was mixed and centrifuged, and the reaction was carried out for 1 hour at 25° C. in the dark;
(2) 25 μL color development system: color development buffer (50 mM Tris pH7.5, 100 mM NaCl, 20 mM MgCl2, 0.05% BSA), in which the final concentration of diaphorase was 36 μg/mL, and the final concentration of resazurin sodium was 3 μM; 25 μL of the above-mentioned color developing solution was added to the 50 μL reaction system in (1), mixed and centrifuged, and the fluorescence value was measured immediately under Ex544/Em590.
(§5) Preparation of standard curve of 2-HG: the stock solution of 2-HG was diluted to 20 μM with reaction buffer, and a 2-fold gradient diluting was performed for a total of 6 points. Afterwards the above-mentioned 2-HG was measured according to the extracellular 2-HG detecting system, and a standard curve was calculated and drawn.
Calculation of Extracellular 2-HG Content:
the fluorescence value obtained in the extracellular 2-HG detecting system was calculated using the 2-HG standard curve to calculate the content of 2-HG in the culture medium, and DMSO was used as a negative control to calculate the compound's inhibition against IDH1/R132H mutation producing the 2-HG activity.
The experimental steps were the same as in Example 7, except that the glioma cell U87MG overexpressing the IDH1/R132H mutation was replaced with the glioma cell U87MG overexpressing the IDH2/R140Q mutation.

IDH1/R132H = target: T2, IDH1/R132H (Homo sapiens, UniProt O75874, R132H); experiment: Inhibitory activity against mutant IDH1/R132H at the cellular level (extracellular 2-HG, U87MG cells); settings: for IC50: 24 hours, read-out: IC50 (nM), inhibitory activity against IDH1/R132H
T2 construct: expressed in transfected cells; host or cells: U87MG glioma cells
Experimental: as §1, §2, §3, §4, §5

IDH1/R132C = target: T3, IDH1/R132C (Homo sapiens, UniProt O75874, R132C); experiment: Inhibitory activity against mutant IDH1/R132C at the cellular level (extracellular 2-HG, HT-1080 cells); settings: for IC50: read-out: IC50 (nM), inhibitory activity against IDH1/R132C
T3 construct: the fibrosarcoma cell HT-1080 containing the IDH1/R132C mutation; endogenous in cells; host or cells: HT-1080 fibrosarcoma cells
Experimental: as §1, §2, §3, §4, §5

[1] = glioma cell U87MG overexpressing IDH1/R132H, 2-HG in culture medium, read-out: IC50, inhibitory activity against IDH1/R132H
[2] = glioma cell U87MG overexpressing IDH1/R132H, 2-HG in culture medium
[3] = fibrosarcoma cell HT-1080 containing IDH1/R132C, 2-HG in culture medium
[4] = fibrosarcoma cell HT-1080 containing IDH1/R132C, 2-HG in culture medium, read-out: IC50, inhibitory activity against IDH1/R132C

T3 sequence (O75874 2-414 R132C limits assumed): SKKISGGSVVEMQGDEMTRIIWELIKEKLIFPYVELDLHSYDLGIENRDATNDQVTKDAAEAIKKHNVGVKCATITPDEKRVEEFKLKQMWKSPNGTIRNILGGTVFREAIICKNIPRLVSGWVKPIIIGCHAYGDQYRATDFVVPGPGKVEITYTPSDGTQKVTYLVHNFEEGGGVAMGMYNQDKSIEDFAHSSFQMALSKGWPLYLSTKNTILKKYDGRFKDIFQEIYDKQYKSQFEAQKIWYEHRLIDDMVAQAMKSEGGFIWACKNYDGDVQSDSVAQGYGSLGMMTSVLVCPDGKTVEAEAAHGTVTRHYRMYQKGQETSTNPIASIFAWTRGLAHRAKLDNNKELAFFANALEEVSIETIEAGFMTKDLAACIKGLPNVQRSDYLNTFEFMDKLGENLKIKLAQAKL
T2 sequence (O75874 whole entry R132H): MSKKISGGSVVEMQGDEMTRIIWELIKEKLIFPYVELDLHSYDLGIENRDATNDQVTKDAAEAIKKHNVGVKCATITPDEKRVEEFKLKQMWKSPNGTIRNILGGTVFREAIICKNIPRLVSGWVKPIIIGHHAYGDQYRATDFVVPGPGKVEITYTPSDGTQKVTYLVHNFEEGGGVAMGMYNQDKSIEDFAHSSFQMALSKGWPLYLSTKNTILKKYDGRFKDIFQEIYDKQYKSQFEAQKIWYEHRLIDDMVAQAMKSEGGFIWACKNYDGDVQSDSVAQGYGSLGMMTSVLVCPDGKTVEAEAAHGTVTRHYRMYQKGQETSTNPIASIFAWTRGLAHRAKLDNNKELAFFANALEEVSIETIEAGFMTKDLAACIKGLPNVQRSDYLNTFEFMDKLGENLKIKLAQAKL

Compound N#Cc1ccnc(N2C(=O)CC[C@H]2C(=O)N(c2cncc(F)c2)[C@H](C(=O)NC2CC(F)(F)C2)c2ccccc2Cl)c1 [AG-120, reference compound] has an IC50 (IDH2/R140Q) greater than 20 µM.
With CC(C)[C@H]1COC(=O)N1c1ccnc(N[C@@H](C)c2ccc(OCCOCCOCCOc3ccc([C@H](C)Nc4nccc(N5C(=O)OC[C@@H]5C(C)C)n4)nc3)cn2)n1 [Compound 1, (4S,4′S)-3,3′-(2,2′-(((1S,1′S)-(5,5′-(((ethane-1,2-diylbis(oxy))bis(ethane-2,1-diyl))bis(oxy))bis(pyridine-5,2-diyl))bis(ethane-1,1-diyl))bis(azanediyl))bis(pyrimidine-4,2-diyl))bis(4-isopropyloxazolidin-2-one)] the pIC50 (IDH1/R132H; [1]) was no less than 8.30, the IC50 (IDH1/R132H; [2]) was less than 5 nM and the “Inhibition of IDH2/R140Q” value (IDH2/R140Q) was “did not inhibit”. For the same compound, the IC50 (IDH2/R140Q) was greater than 20 µM, the IC50 (IDH1/R132C; [3]) was less than 5 nM and the pIC50 (IDH1/R132C; [4]) was no less than 8.30.
In the case of CC(C)[C@H]1COC(=O)N1c1ccnc(N[C@@H](C)c2ccc(OCCOCCOCCOCCOc3ccc([C@H](C)Nc4nccc(N5C(=O)OC[C@@H]5C(C)C)n4)nc3)cn2)n1 [Compound 2, (4S,4′S)-3,3′-(2,2′-(((1S,1′S)-(5,5′-((((oxybis(ethane-2,1-diyl))bis(oxy))bis(ethane-2,1-diyl))bis(oxy))bis(pyridine-5,2-diyl))bis(ethane-1,1-diyl))bis(azanediyl))bis(pyrimidine-4,2-diyl))bis(4-isopropyloxazolidin-2-one)], the pIC50 (IDH1/R132H; [1]) was no less than 8.30, the IC50 (IDH1/R132H; [2]) was less than 5 nM and the “Inhibition of IDH2/R140Q” value (IDH2/R140Q) was “did not inhibit”. It also gave an IC50 (IDH2/R140Q) greater than 20 µM, an IC50 (IDH1/R132C; [3]) of less than 5 nM and a pIC50 (IDH1/R132C; [4]) of no less than 8.30.
Work on CC(C)[C@H]1COC(=O)N1c1ccnc(N[C@@H](C)c2ccccc2)n1 [IDH125, reference compound] yielded an IC50 (IDH2/R140Q) greater than 20 µM.
For CC(C)[C@H]1COC(=O)N1c1ccnc(N[C@@H](C)c2ccccn2)n1 [Ref1, reference compound], the pIC50 (IDH1/R132H) was 5.00 to 6.30, the IC50 (IDH2/R140Q) was greater than 20 µM and the pIC50 (IDH1/R132C) was 5.00 to 6.30.
